Consider three compounds from patent US7094809B2, “Method of treating subject infected with Neisseria gonorrhea” (Northeastern Ohio Universities College of Medicine, priority 2000, dated 2006).

Converted amounts (≈) assume the structure as drawn. Where two headings read alike, the source gives them in different places.

Series [1] has as its system HSV-1. The series is described as follows: HSV-1 plaque assay, infected Vero cells, moi 1 (Example 3). It is filed as cell-based. The following applies: 50 μM, data not shown. The protocol:
Cultures of African green monkey kidney cells (Vero) cells, obtained from the American Type Culture Collection, Rockville, Md. were grown to confluence in Medium 199 supplemented with 5% fetal bovine serum, 0.075% NaHCO3, and 50 μg/ml gentamycin sulfate in 25 cm^2 tissue culture flasks. Cells were infected with HSV-1 at a multiplicity of infection (moi) of one and incubated at room temperature for one hour to allow for virus attachment to and penetration of the cell. Under these conditions, approximately half of the cells are infected with virus. Thereafter, the cultures were rinsed three time with media and incubated in medium containing 50 μM or 75 μM 4, 4′-dihydroxytolan prepared in 0.2% dimethyl-sulfoxide (DMSO). Controls were treated identically, but were incubated without the dihyroxylated tolan. For purposes of comparison, HSV cell were also inoculated in the presence of 52.5 μM 4,4′-dihydroxystilbene. Due to the higher cell toxicity of the stilbene, cells were not incubated in the presence of 75 μM dihydroxystilbene.
Upon addition of the medium to the cultures and at 24 hours time periods thereafter, i.e., 0 hours, 24 hours, 48 hours, and 72 hours after addition of the drug, cells and medium were frozen at −70° C. Samples were then thawed, sonicated and titrated on Vero cells to determine the number of plaque forming units (pfu's) of virus produced by each culture.

For the next series, the system named is Vero cells. The series is described as follows: MTT colorimetric cell toxicity assay. Type of series: cell-based, African green monkey. How it is done:
Cell toxicity of the tolans 4,4′-dihydroxytolan (“Tolan-5”), 3,4′,5-trihydroxytolan (“Tolan-10”) and 4-hydroxy-4′-trifluoromethyltolan (“Tolan-11”) was determined using an MTT assay. In this assay, cells are exposed to MTT, 3-(4,5-dimethylthiazol-2-yl)-2,5-diphenyltetrazolium bromide, which is taken into the cells and reduced by mitochondrial dehydrogenase to a purple formazan, a large molecule which is unable to pass through intact cell membranes, and therefore accumulates in healthy cells. The ability of cells to reduce MTT is an indication of mitochondrial integrity and activity, which may be interpreted as a measure of viability. Solubilization of the cells results in the liberation of the product which can readily be detected spectrophotometrically.
Various concentrations of Tolan-5, Tolan-10 and Tolan-11 were added to 96 well tissue culture plates that had been seeded with Vero cells. The plates were then incubated at 37° C. in 5% CO2/95% air for 24, 48 and 72 hours. At the end of each time point, 50 μl of MTT (1 mg/ml) was added to the tissue culture plates which were then incubated for an additional four hours. At the end of that time, dimethyl sulfoxide (DMSO) was added to dissolve the cells and formazan, and the plates were read spectrophotometrically at 540 nm. […] Presented in Table I below are the toxicity results for Tolan-5, Tolan-10, and Tolan-11 measured at 24, 48 and 72 hours of treatment.

Series [2] deals with HSV-1. Put plainly: Inhibition of HSV-1 replication in vitro, plaque assay (Example 9). It is filed as cell-based. The conditions noted are these: for HSV-1 production: Vero cells, moi 1, up to 72 hours. How it is done:
Tissue culture cells were infected with HSV-1 and incubated in solutions containing Tolan-5, Tolan-10 and Tolan-11. The concentrations used ranged from one-half to three-quarters of the calculated CD50 for the respective tolan at 48 hours of treatment. Specifically, Vero cells were infected with HSV-1 at a multiplicity of infection of one for one hour. At the end of that time, the cultures were rinsed with media and fresh media containing various concentration of the respective tolan were added. Infected control cultures were incubated in media lacking hydroxylated tolan. At 1, 24, 48, and 72 hours after infection, samples were frozen at −70° C. until assayed for new virus production. Virus production was quantified by the plaque assay for each time point of infection. The results, which are expressed as plaque forming units per milliliter (pfu/ml).

The test system of series [3] is HSV-1. Put plainly: HSV-1 skin scratch infection in hairless mice, topical treatment (Example 10). It is filed as in vivo, SKH-1 hairless mice. The following applies: for severity of HSV lesions: topical, three times a day for five days, versus untreated or DMSO only; for animals that perished within 11 days after infection: controls 50% died. How it is done: Female SKH-1 hairless mice 4–5 weeks old were lightly anesthetized and a scratch approximately 2–3 mm long and 0.25 mm deep was made on the lateral dorsal aspect of the neck. The scratch was infected with 10^6 plaque forming units of HSV-1. One hour later, the infected scratch area was treated with a 5% or 10% solution of Tolan-10 in DMSO. This treatment was repeated three times a day for five days. There were at least six mice in each treatment group. Untreated mice and mice treated with DMSO only were used as controls. Beginning on day 1 and continuing for 10–11 days, the scratch site was examined daily for evidence of an HSV infection and scored according to the following schedule: • 0=no visible change on skin by scratch • 1+=papules around scratch • 2+=papules around scratch ulcerate with scab formation • 3+=ulcerative zosterform spread along peripheral nerves to flank of animal • 4+=ulcerative lesions open on flank • 5+=death/sacrifice The data was grouped according to treatment and statistically analyzed for significance.

The test system of series [4] is Neisseria gonorrhea CDC 98. Put plainly: Growth inhibition on chocolate agar plates. Type of series: cell-based. The protocol:
(§1) Various concentrations of the trihydroxytolan Tolan-10 were incorporated into chocolate agar plates that were prepared using standard procedures. The trihydroxylated tolan was first dissolved in DMSO and medium and then added to liquid chocolate agar, which was then poured into petri plates and allowed to solidify. The highest concentration of DMSO in the agar was 0.5%. Control plates containing chocolate agar and DMSO at a final concentration of 0.5% were also prepared.
Neisseria gonorrhea CDC 98 was obtained from Difco Laboratories. The authenticity of the bacterium was confirmed utilizing standard microbiological techniques of identification. Cultures of the bacterial isolate were inoculated onto fresh plates of solidified chocolate agar and then 24 hours later, a suspension was made from isolated colonies.
(§2) 10 μl aliquots of the suspension were spread evenly across the surface of solidified control chocolate agar lacking tolan and the surface of solidified chocolate agar containing Tolan-10 at final concentrations ranging from 1 to 125 μg/ml. Thereafter, the agar plates were incubated at 37° C. with or without 5% CO2. All plates were visually examined for growth of the bacterium 24 hours later to determine the concentration of the tri-hydroxylated tolan that inhibits growth by 50% (MIC50) as well as the concentration which inhibits any visible growth (MIC100).

The test system of the next series is Candida albicans. The series is described as follows: Growth inhibition on agar plates. It is filed as cell-based. The protocol: as §1, §2
(§3) The effect of the same concentrations of Tolan-10 on the growth of Escherichia coli, Staphylococcus aureus, Streptococcus pyogenes, Pseudomonas aeruginosa, Neisseria meningiditis and Candida albicans was also determined. […] The IC50 value of the tri-hydroxylated tolan for this bacterium at 24 hours of treatment was 50 μg/ ml and the IC100 value was 100 μg/ml. In contrast, Tolan 10, at the highest concentration tested, had no effect on the other microorganisms listed.

Another series deals with Escherichia coli. The series is described as follows: Growth inhibition on agar plates. It is filed as cell-based. The protocol:
as §1, §2, §3

In a further series the test system is Neisseria meningiditis. The series is described as follows: Growth inhibition on agar plates. It is filed as cell-based. The protocol:
as §1, §2, §3

The next series concerns Pseudomonas aeruginosa. Put plainly: Growth inhibition on agar plates. It is filed as cell-based. How it is done:
as §1, §2, §3

Another series deals with Staphylococcus aureus. Put plainly: Growth inhibition on agar plates. It is filed as cell-based. The protocol:
as §1, §2, §3

The test system of the next series is Streptococcus pyogenes. Put plainly: Growth inhibition on agar plates. It is filed as cell-based. How it is done:
as §1, §2, §3

Take `Oc1ccc(C=Cc2ccc(O)cc2)cc1` [4,4′-dihydroxystilbene, reference compound]: in the series on HSV-1 [1], the “effect on virus production” value is on record as “no effect”.

For `Oc1ccc(C#Cc2cc(O)cc(O)c2)cc1` [Tolan-10, 3,4′,5-trihydroxytolan], the “toxicity (in words)” value with Vero cells is given as “very little toxicity”. For the same compound, the CD50 in the series with Vero cells (24 hours), in the series with Vero cells (48 hours) and in the series on Vero cells (72 hours) was over 200 µM throughout. The “estimated CD50” value with Vero cells (summary of Table 1) is over 200 μm. Also, in the series on HSV-1 [2] (350 μm to 175 μm), the “effectiveness against the virus over concentrations” value is given as “equally effective against the virus at all concentrations”. Moreover, the HSV-1 production entry in the series on HSV-1 [2] is “inhibited HSV-1 production”. Also, the “severity of HSV lesions” value with HSV-1 [3] (5% solution in DMSO) and in the series with HSV-1 [3] (10% solution in DMSO) was “significantly reduced the severity of HSV lesions” each time. For the same compound, the “animals that perished within 11 days after infection” value with HSV-1 [3] (5%) and in the series on HSV-1 [3] (10%) was “none” throughout. In addition, the “effectiveness of 10% compared with 5%” value in the series on HSV-1 [3] (particularly days 6–10, not significantly different) was “slightly more effective than 5% Tolan-10”. For the same compound, in [4] (24 hours of treatment), the IC100 value was determined as 100 µg/mL. For the same compound, the IC100 in series [4] (N. gonorrhoeae, agar, 24 hours) was 100 mg/L; in the series with Candida albicans (C. albicans) it was over 125 mg/L; with Escherichia coli (E. coli) it was over 125 mg/L; in the series with Pseudomonas aeruginosa (P. aeruginosa), over 125 mg/L; in the series on Staphylococcus aureus (S. aureus) it was over 125 mg/L; in the series with Streptococcus pyogenes (S. pyogenes) it was over 125 mg/L. In addition, the IC50 in [4] (N. gonorrhoeae, agar, 24 hours, read-out: IC50) was 50 µg/mL (≈ 221 µM); in series [4] (Neisseria, CDC98, 24 hours of treatment, read-out: IC50 value), 50 µg/mL (≈ 221 µM); in the series with Candida albicans (Candida albicans, C. albicans), over 125 µg/mL; with Escherichia coli (Escherichia coli, E. coli), over 125 µg/mL; in the series with Neisseria meningiditis (Neisseria, N. meningitides), over 125 µg/mL; in the series on Pseudomonas aeruginosa (Pseudomonas aeruginosa, P. aeruginosa), over 125 µg/mL. Also, the IC50 in the series with Staphylococcus aureus (Staphylococcus aureus, S. aureus) is over 125 µg/mL; in the series on Streptococcus pyogenes (Streptococcus pyogenes, S. pyogenes), over 125 µg/mL. Moreover, the “selectivity of growth inhibition” value in [4] (versus the other microorganisms tested) was “selectively inhibited”. The effect on growth entry with Candida albicans (highest concentration tested), in the series on Escherichia coli (highest concentration tested), in the series with Neisseria meningiditis (highest concentration tested), with Pseudomonas aeruginosa (highest concentration tested), in the series on Staphylococcus aureus (highest concentration tested) and in the series with Streptococcus pyogenes (highest concentration tested) was “no effect” in each case.

As for `Oc1ccc(C#Cc2ccc(C(F)(F)F)cc2)cc1` [Tolan-11, 4-hydroxy-4′-trifluoromethyltolan], in the series on Vero cells, the “toxicity (in words)” value is listed as “more toxic than the other hydroxylated tolans”. In addition, the CD50 with Vero cells (24 hours) was 72.1 µM; in the series with Vero cells (48 hours), 48.2 µM; in the series on Vero cells (72 hours), 47.1 µM. In the series with HSV-1 [2], the HSV-1 production result is listed as “inhibited HSV-1 production”. For the same compound, in the series with HSV-1 [2] (concentration of less than 48 μm), the “effect on HSV-1 production” value was “little to no effect”.
